Experimental data as given in US12590086B2, “3-((1H-pyrazol-4-yl)methyl)-6′-(phenyl)-2H-(1,2′-bipyridin)-2-one derivatives and related compounds as GPR139 antagonists for use in a method of treatment of e.g. depression” (TAKEDA PHARMACEUTICAL COMPANY LIMITED, priority 2020, dated 2026).

target: T1, human GPR139 (Homo sapiens, UniProt Q6DWJ6); test: Inhibition rate of the amount of IP1 in GPR139-expressed CHO cells (inverse agonist assay, IP-ONE HTRF); assay type: cell-based; settings: 30 μM compound; CHO-TREx cells expressing human GPR139; vehicle set to 0%, IP1 concentration 0 set to 100%; read-out: inhibition rate of the amount of IP1
T1 construct: expressed in transfected cells; host or cells: CHO-TREx (Life Technologies) cells, expression induced with doxycycline
T1 sequence (Q6DWJ6 1-353): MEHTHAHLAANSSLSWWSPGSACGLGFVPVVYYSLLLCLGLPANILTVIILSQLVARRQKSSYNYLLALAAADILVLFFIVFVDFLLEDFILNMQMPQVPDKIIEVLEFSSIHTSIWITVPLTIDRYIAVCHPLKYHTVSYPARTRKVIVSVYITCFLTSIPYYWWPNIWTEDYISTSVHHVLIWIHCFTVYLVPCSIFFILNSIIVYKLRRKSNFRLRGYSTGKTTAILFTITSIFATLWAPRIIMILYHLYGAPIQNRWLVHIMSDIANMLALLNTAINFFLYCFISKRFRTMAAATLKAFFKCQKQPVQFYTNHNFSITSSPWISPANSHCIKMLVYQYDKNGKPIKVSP
Procedure: Measurement of the inhibition rate of the amount of IP1 in 30 µM of the compound of Reference Example 1 in GPR139-expressed CHO cells
Changes in the amount of IP1 in GPR139-expressed CHO cells were measured in order to evaluate the activity of the compound via GPR139. GPR139 is a Gq-coupled receptor which varies intracellular calcium (Liu C et al., Mol Pharmacol. 2015 November; 88(5):911-25), so the amount of IP1, which is a stable metabolite of the second messenger IP3, changes due to activity regulation of GPR139. GPR139 is considered to be […] when expressed recombinantly in mammal cells, so a compound having a GPR139 receptor inverse agonist action is expected to reduce the amount of IP1 production.
The measurement of IP1 was made using an IP-ONE HTFR assay kit (cis-bio) and CHO-TREx (Life Technologies) cells stably transfected with GPR139. The CHO-TREx cells expressed human GPR139 with a tetracycline-inducing element. The cells were cultured in a medium containing F12K and 10% tetracycline-free FBS, and the expression of human GPR139 was induced over the course of 17 hours under conditions of 37° C. and 5% CO2 in the presence of 2 μg/mL of doxycycline (Clontech, 631311) in the growth medium on the day before assay. On the day of the test, after the cells were washed with 10 mL of PBS, the cells were detached with TrypLE Express (Life Technologies) and centrifuged at 1,000 rpm to form pellets, and a cell suspension was then prepared using a stimulation buffer (cis-bio, included in the IP-ONE HTRF assay kit).
The compound was diluted with the stimulation buffer, and 4 μL was added to a 384-well white assay plate (Greiner). The cell suspension was added so that there were 2000 cells per well, and the assay plate was left to stand for 40 minutes at 37° C. Equal amounts of iP1-d2 and Ab-Crp solutions (both available from cis-bio, included in the IP-ONE HTRF assay kit) prepared with a lysis buffer (cis-bio, included in the IP-ONE HTRF assay kit) were mixed, and 4 μL was added to the assay plate and left to stand for one hour at room temperature. After the fluorescence strengths of two wavelengths were measured by the HTRF settings of Envision (PerkinElmer), the value of Ratio=((Signal 665 nm)/(Signal 615 nm))×10000 was calculated.
Measurement of the Inhibition Rate of the Amount of IP1 in GPR139-Expressed CHO Cells (Inverse Agonist Assay)
The activities of the compounds of Examples 20 to 33 were expressed as relative values in Table 2 by measuring the inhibition rate of the amount of IP1 with the same method as in Test Example 1 and defining the inhibition rate of the amount of IP1 of the compound of Reference Example 1 in Test Example 1 as 100%.

| inhibition at 30 µM | Compound |
| --- | --- |
| 84% | CCn1cc(Cn2ccn(-c3cc(N4CCO[C@H](C)C4)cc(C(F)(F)F)c3F)c2=O)cn1 [Reference Example 1, 1-[(1-Ethyl-1H-pyrazole-4-yl)methyl]-3-{2-fluoro-5-[(2R)-2-methylmorpholine-4-yl]-3-(trifluoromethyl)phenyl}-1,3-dihydro-2H-imidazole-2-one, reference compound] |

same assay, conditions: relative value; inhibition rate of Reference Example 1 in Test Example 1 defined as 100%; GPR139-expressed CHO cells; read-out: IP1 Inhibition Rate at 30 μM

| inhibition at 30 µM | Compound |
| --- | --- |
| 99% | CCn1cc(Cc2cc(C)cn(-c3cc(N4CCO[C@H](C)C4)cc(C4CC4)c3F)c2=O)cn1 [Example 32, 1-{3-cyclopropyl-2-fluoro-5-[(2R)-2-methylmorpholin-4-yl]phenyl}-3-[(1-ethyl-1H-pyrazol-4-yl)methyl]-5-methylpyridin-2(1H)-one] |
| 96% | CCn1cc(Cc2cccn(-c3cc(N4CCO[C@H](C)C4)cc(C4CC4)c3F)c2=O)cn1 [Example 20, 1-{3-cyclopropyl-2-fluoro-5-[(2R)-2-methylmorpholin-4-yl]phenyl}-3-[(1-ethyl-1H-pyrazol-4-yl)methyl]pyridin-2(1H)-one] |
| 95% | CC(C)n1cc(Cc2cccn(-c3cc(N4CCO[C@H](C)C4)cc(C4CC4)c3F)c2=O)cn1 [Example 25, 1-{3-cyclopropyl-2-fluoro-5-[(2R)-2-methylmorpholin-4-yl]phenyl}-3-{[1-(propan-2-yl)-1H-pyrazol-4-yl]methyl}pyridin-2(1H)-one] |
| 102% | CCn1cc(Cc2ccc(C)n(-c3cc(C4CC4)cc(N4CCO[C@H](C)C4)c3)c2=O)cn1 [Example 29, 1-{3-cyclopropyl-5-[(2R)-2-methylmorpholin-4-yl]phenyl}-3-[(1-ethyl-1H-pyrazol-4-yl)methyl]-6-methylpyridin-2(1H)-one] |
| 97% | CCn1cc(Cc2c(F)ccn(-c3cc(N4CCO[C@H](C)C4)cc(C4CC4)c3F)c2=O)cn1 [Example 26, 1-{3-cyclopropyl-2-fluoro-5-[(2R)-2-methylmorpholin-4-yl]phenyl}-3-[(1-ethyl-1H-pyrazol-4-yl)methyl]-4-fluoropyridin-2(1H)-one] |
| 96% | CCn1cc(Cc2cccn(-c3cc(N4CCO[C@H](C)C4)cc(C(C)C)c3F)c2=O)cn1 [Example 27, 3-[(1-ethyl-1H-pyrazol-4-yl)methyl]-1-{2-fluoro-5-[(2R)-2-methylmorpholin-4-yl]-3-(propan-2-yl)phenyl}pyridin-2(1H)-one] |
| 96% | CCn1cc(Cc2c(C)ccn(-c3cc(N4CCO[C@H](C)C4)cc(C4CC4)c3F)c2=O)cn1 [Example 33, 1-{3-cyclopropyl-2-fluoro-5-[(2R)-2-methylmorpholin-4-yl]phenyl}-3-[(1-ethyl-1H-pyrazol-4-yl)methyl]-4-methylpyridin-2(1H)-one] |
| 100% | CCn1cc(Cc2ccc(F)n(-c3cc(C4CC4)cc(N4CCO[C@H](C)C4)c3)c2=O)cn1 [Example 31, 1-{3-cyclopropyl-5-[(2R)-2-methylmorpholin-4-yl]phenyl}-3-[(1-ethyl-1H-pyrazol-4-yl)methyl]-6-fluoropyridin-2(1H)-one] |
| 96% | CCn1cc(Cc2cccn(-c3cc(N4CCOC(C)(C)C4)cc(C4CC4)c3F)c2=O)cn1 [Example 21, 1-[3-cyclopropyl-5-(2,2-dimethylmorpholin-4-yl)-2-fluorophenyl]-3-[(1-ethyl-1H-pyrazol-4-yl)methyl]pyridin-2(1H)-one] |

More lines, now with the values behind:

| Compound | inhibition at 30 µM |
| --- | --- |
| CCn1cc(Cc2cccn(-c3cc(N4CCO[C@H](C)C4)cc(OC(F)(F)F)c3F)c2=O)cn1 [Example 24, 3-[(1-ethyl-1H-pyrazol-4-yl)methyl]-1-{2-fluoro-5-[(2R)-2-methylmorpholin-4-yl]-3-(trifluoromethoxy)phenyl}pyridin-2(1H)-one] | 98% |
| CCn1cc(Cc2cccn(-c3cc(OC4CCOCC4)cc(C4CC4)c3F)c2=O)cn1 [Example 22, 1-{3-cyclopropyl-2-fluoro-5-[(oxan-4-yl)oxy]phenyl}-3-[(1-ethyl-1H-pyrazol-4-yl)methyl]pyridin-2(1H)-one] | 98% |
| CCn1cc(Cc2cccn(-c3cc(OC4CCOCC4)cc(Br)c3F)c2=O)cn1 [Example 23, 1-{3-bromo-2-fluoro-5-[(oxan-4-yl)oxy]phenyl}-3-[(1-ethyl-1H-pyrazol-4-yl)methyl]pyridin-2(1H)-one] | 100% |
| CCn1cc(Cc2cccn(-c3cc(N4CCC(F)(F)CC4)cc(C4CC4(F)F)c3F)c2=O)cn1 (stereo not drawn) [Example 30, 1-[3-(2,2-difluorocyclopropyl)-5-(4,4-difluoropiperidin-1-yl)-2-fluorophenyl]-3-[(1-ethyl-1H-pyrazol-4-yl)methyl]pyridin-2(1H)-one] | 97% |
| CCn1cc(Cc2cccn(-c3cc(N4CCO[C@H](C)C4)cc(CC(F)(F)F)c3F)c2=O)cn1 [Example 28, 3-[(1-ethyl-1H-pyrazol-4-yl)methyl]-1-{2-fluoro-5-[(2R)-2-methylmorpholin-4-yl]-3-(2,2,2-trifluoroethyl)phenyl}pyridin-2(1H)-one] | 100% |
